Reference: ChEMBL document CHEMBL3885881, “DrugMatrix”

Species on record: Rattus norvegicus
Assay: DrugMatrix - Regimen: Daily Repeat
Assay type: toxicity, organism-based, Sprague-Dawley
Set-up: regimen Daily Repeat, gender Male, age 6-8 weeks
Settings: in vivo, po, route oral GAVAGE, vehicle .5 % CMC; for BASOPHIL / EOSINOPHIL / ERYTHROCYTE COUNT / HEMATOCRIT / HEMOGLOBIN / LEUKOCYTE COUNT / LYMPHOCYTE / MEAN CORPUSCULAR HEMOGLOBIN / MEAN CORPUSCULAR HEMOGLOBIN CONCENTRATION / MEAN CORPUSCULAR VOLUME / MONOCYTE / NEUTROPHIL / PLATELET COUNT: tissue Blood; for ALANINE AMINOTRANSFERASE / ALKALINE PHOSPHATASE / ASPARTATE AMINOTRANSFERASE / BLOOD UREA NITROGEN / CHLORIDE / CHOLESTEROL / CREATINE PHOSPHOKINASE / CREATININE / GLUCOSE / PHOSPHORUS / POTASSIUM / SODIUM / TOTAL PROTEIN: tissue Plasma
[1] = 0 mg/kg, 72 h, dose level Control, time 3 day
[2] = 0 mg/kg, 120 h, dose level Control, time 5 day
[3] = 30 mg/kg, 72 h, dose level Low, time 3 day
[4] = 30 mg/kg, 120 h, dose level Low, time 5 day

CCN(CC)CCNC(=O)c1cc(Cl)c(N)cc1OC [METOCLOPRAMIDE]
BASOPHIL [1]: 0% | EOSINOPHIL [1]: 0.4% | ERYTHROCYTE COUNT [1]: 6.43 x10E6/uL | HEMATOCRIT [1]: 37.36% | HEMOGLOBIN [1]: 13.98 G/DL | LEUKOCYTE COUNT [1]: 13 x10E3/uL | LYMPHOCYTE [1]: 81.4% | MEAN CORPUSCULAR HEMOGLOBIN [1]: 21.9 pg | MEAN CORPUSCULAR HEMOGLOBIN CONCENTRATION [1]: 37.4 G/DL | MEAN CORPUSCULAR VOLUME [1]: 58.52 fL | MONOCYTE [1]: 0.4% | NEUTROPHIL [1]: 18% | PLATELET COUNT [1]: 1386 x10E3/uL | ALANINE AMINOTRANSFERASE [1]: 39.33 u/L | ALKALINE PHOSPHATASE [1]: 283.83 u/L | ASPARTATE AMINOTRANSFERASE [1]: 69.5 u/L | BLOOD UREA NITROGEN [1]: 14.83 mg/dL | CHLORIDE [1]: 107.33 MEQ/L | CHOLESTEROL [1]: 75.17 mg/dL | CREATINE PHOSPHOKINASE [1]: 107.67 u/L | CREATININE [1]: 0.48 mg/dL | GLUCOSE [1]: 172.5 mg/dL | PHOSPHORUS [1]: 10.48 mg/dL | POTASSIUM [1]: 6.9 MEQ/L | SODIUM [1]: 152.33 MEQ/L | TOTAL PROTEIN [1]: 5.9 G/DL | BASOPHIL [2]: 0% | EOSINOPHIL [2]: 0.4% | ERYTHROCYTE COUNT [2]: 6.96 x10E6/uL | HEMATOCRIT [2]: 41.12% | HEMOGLOBIN [2]: 15.24 G/DL | LEUKOCYTE COUNT [2]: 11.06 x10E3/uL | LYMPHOCYTE [2]: 88.6% | MEAN CORPUSCULAR HEMOGLOBIN [2]: 21.96 pg | MEAN CORPUSCULAR HEMOGLOBIN CONCENTRATION [2]: 37.1 G/DL | MEAN CORPUSCULAR VOLUME [2]: 59.12 fL | MONOCYTE [2]: 0.2% | NEUTROPHIL [2]: 10.8% | PLATELET COUNT [2]: 1155.8 x10E3/uL | ALANINE AMINOTRANSFERASE [2]: 36.33 u/L | ALKALINE PHOSPHATASE [2]: 340.33 u/L | ASPARTATE AMINOTRANSFERASE [2]: 68.33 u/L | BLOOD UREA NITROGEN [2]: 15 mg/dL | CHLORIDE [2]: 108.17 MEQ/L | CHOLESTEROL [2]: 74.67 mg/dL | CREATINE PHOSPHOKINASE [2]: 110.67 u/L | CREATININE [2]: 0.47 mg/dL | GLUCOSE [2]: 171.33 mg/dL | PHOSPHORUS [2]: 10.05 mg/dL | POTASSIUM [2]: 6.7 MEQ/L | SODIUM [2]: 155.5 MEQ/L | TOTAL PROTEIN [2]: 6.33 G/DL | BASOPHIL [3]: 0% | EOSINOPHIL [3]: 0% | ERYTHROCYTE COUNT [3]: 6.75 x10E6/uL | HEMATOCRIT [3]: 41.55% | HEMOGLOBIN [3]: 15.45 G/DL | LEUKOCYTE COUNT [3]: 12.45 x10E3/uL | LYMPHOCYTE [3]: 81% | MEAN CORPUSCULAR HEMOGLOBIN [3]: 22.95 pg | MEAN CORPUSCULAR VOLUME [3]: 61.7 fL | MONOCYTE [3]: 0% | NEUTROPHIL [3]: 19% | PLATELET COUNT [3]: 1187 x10E3/uL | ALANINE AMINOTRANSFERASE [3]: 40.67 u/L | ALKALINE PHOSPHATASE [3]: 299.33 u/L | ASPARTATE AMINOTRANSFERASE [3]: 95.67 u/L | BLOOD UREA NITROGEN [3]: 12.33 mg/dL | CHLORIDE [3]: 107.33 MEQ/L | CHOLESTEROL [3]: 78.67 mg/dL | CREATINE PHOSPHOKINASE [3]: 421.67 u/L | CREATININE [3]: 0.77 mg/dL | GLUCOSE [3]: 175.67 mg/dL | PHOSPHORUS [3]: 11.53 mg/dL | POTASSIUM [3]: 7.6 MEQ/L | SODIUM [3]: 150.67 MEQ/L | TOTAL PROTEIN [3]: 6.13 G/DL | BASOPHIL [4]: 0% | EOSINOPHIL [4]: 0% | ERYTHROCYTE COUNT [4]: 7 x10E6/uL | HEMATOCRIT [4]: 41.57% | HEMOGLOBIN [4]: 15.33 G/DL | LEUKOCYTE COUNT [4]: 13.57 x10E3/uL | LYMPHOCYTE [4]: 91% | MEAN CORPUSCULAR HEMOGLOBIN [4]: 21.93 pg | MEAN CORPUSCULAR HEMOGLOBIN CONCENTRATION [4]: 36.87 G/DL | MEAN CORPUSCULAR VOLUME [4]: 59.4 fL | MONOCYTE [4]: 0.33% | NEUTROPHIL [4]: 8.67% | PLATELET COUNT [4]: 1231.67 x10E3/uL | ALANINE AMINOTRANSFERASE [4]: 41 u/L | ALKALINE PHOSPHATASE [4]: 236.67 u/L | ASPARTATE AMINOTRANSFERASE [4]: 70.33 u/L | BLOOD UREA NITROGEN [4]: 14.67 mg/dL | CHLORIDE [4]: 104.33 MEQ/L | CHOLESTEROL [4]: 63.33 mg/dL | CREATINE PHOSPHOKINASE [4]: 157 u/L | CREATININE [4]: 0.5 mg/dL | GLUCOSE [4]: 156.33 mg/dL | PHOSPHORUS [4]: 9.97 mg/dL | POTASSIUM [4]: 6.37 MEQ/L | SODIUM [4]: 151.67 MEQ/L | TOTAL PROTEIN [4]: 6.23 G/DL
